Experimental data: PubChem BioAssay AID1259407 (Chemical Carcinogenesis Research Information System (CCRIS), 2018)
Calls of active or inactive are those of the source. How the calls were made is not given here.

Test system: CCRIS mutagenicity, Ames/micronucleus/aberration tests
Assay: CCRIS mutagenicity studies
[1] = Test System: AMES SALMONELLA TYPHIMURIUM, Strain/Indicator: TA1535, Metabolic Activation: NONE, Method: PREINCUBATION
[2] = Test System: AMES SALMONELLA TYPHIMURIUM, Strain/Indicator: TA1537, Metabolic Activation: NONE, Method: PREINCUBATION

For `CCOCCO`, which mutagenic call (End Point: IN VITRO CHROMOSOMAL ABERRATIONS, Test System: CHINESE HAMSTER OVARY CELLS, Metabolic Activation: RAT, LIVER, S-9, AROCLOR 1254) is on record?
Its mutagenic call is “inactive; negative”.

What about the mutagenic call (Test System: AMES SALMONELLA TYPHIMURIUM, Strain/Indicator: TA97A, Metabolic Activation: NONE, Method: STANDARD PLATE) of the same compound?
Its mutagenic call is “inactive; negative”.

And the mutagenic call (Test System: AMES SALMONELLA TYPHIMURIUM, Strain/Indicator: TA97A, Metabolic Activation: RAT, LIVER, S-9, AROCLOR 1254, Method: STANDARD PLATE)?
The mutagenic call was “inactive; negative”.

What about the mutagenic call (Test System: AMES SALMONELLA TYPHIMURIUM, Strain/Indicator: TA98, Metabolic Activation: HAMSTER, LIVER, S-9, AROCLOR 1254 (10%), Method: PREINCUBATION) of the same compound?
Its mutagenic call is “inactive; negative”.

What about the mutagenic call (Test System: AMES SALMONELLA TYPHIMURIUM, Strain/Indicator: TA98, Metabolic Activation: NONE, Method: PREINCUBATION) of the same compound?
Its mutagenic call is “inactive; negative”.

What about the mutagenic call (Test System: AMES SALMONELLA TYPHIMURIUM, Strain/Indicator: TA98, Metabolic Activation: NONE, Method: STANDARD PLATE) of the same compound?
Its mutagenic call is “inactive; negative”.

What about the mutagenic call (Test System: AMES SALMONELLA TYPHIMURIUM, Strain/Indicator: TA98, Metabolic Activation: RAT, LIVER, S-9, AROCLOR 1254 (10%), Method: PREINCUBATION) of the same compound?
The mutagenic call was “inactive; negative”.

What about the mutagenic call (Test System: AMES SALMONELLA TYPHIMURIUM, Strain/Indicator: TA98, Metabolic Activation: RAT, LIVER, S-9, AROCLOR 1254, Method: STANDARD PLATE) of the same compound?
Its mutagenic call is “inactive; negative”.

What about the mutagenic call (Test System: AMES SALMONELLA TYPHIMURIUM, Strain/Indicator: TA98, Metabolic Activation: RAT, LIVER, S-9, KC 500, Method: PREINCUBATION) of the same compound?
The mutagenic call was “inactive; negative”.

And the mutagenic call (Test System: AMES SALMONELLA TYPHIMURIUM, Strain/Indicator: TA100, Metabolic Activation: HAMSTER, LIVER, S-9, AROCLOR 1254 (10%), Method: PREINCUBATION)?
Its mutagenic call is “inactive; negative”.

And the mutagenic call (Test System: AMES SALMONELLA TYPHIMURIUM, Strain/Indicator: TA100, Metabolic Activation: NONE, Method: PREINCUBATION)?
The mutagenic call was “inactive; negative”.

What about the mutagenic call (Test System: AMES SALMONELLA TYPHIMURIUM, Strain/Indicator: TA100, Metabolic Activation: NONE, Method: STANDARD PLATE) of the same compound?
The mutagenic call was “inactive; negative”.

What about the mutagenic call (Test System: AMES SALMONELLA TYPHIMURIUM, Strain/Indicator: TA100, Metabolic Activation: RAT, LIVER, S-9, AROCLOR 1254 (10%), Method: PREINCUBATION) of the same compound?
Its mutagenic call is “inactive; negative”.

What about the mutagenic call (Test System: AMES SALMONELLA TYPHIMURIUM, Strain/Indicator: TA100, Metabolic Activation: RAT, LIVER, S-9, AROCLOR 1254, Method: STANDARD PLATE) of the same compound?
The mutagenic call was “inactive; negative”.

What about the mutagenic call (Test System: AMES SALMONELLA TYPHIMURIUM, Strain/Indicator: TA100, Metabolic Activation: RAT, LIVER, S-9, KC 500, Method: PREINCUBATION) of the same compound?
The mutagenic call was “inactive; negative”.

And the mutagenic call (Test System: AMES SALMONELLA TYPHIMURIUM, Strain/Indicator: TA102, Metabolic Activation: NONE, Method: STANDARD PLATE)?
Its mutagenic call is “inactive; negative”.

What about the mutagenic call (Test System: AMES SALMONELLA TYPHIMURIUM, Strain/Indicator: TA102, Metabolic Activation: RAT, LIVER, S-9, AROCLOR 1254, Method: STANDARD PLATE) of the same compound?
Its mutagenic call is “inactive; negative”.

And the mutagenic call (Test System: AMES SALMONELLA TYPHIMURIUM, Strain/Indicator: TA1535, Metabolic Activation: HAMSTER, LIVER, S-9, AROCLOR 1254 (10%), Method: PREINCUBATION)?
The mutagenic call was “inactive; negative”.

And the mutagenic call [1]?
Its mutagenic call is “inactive; negative”.

What about the mutagenic call (Test System: AMES SALMONELLA TYPHIMURIUM, Strain/Indicator: TA1535, Metabolic Activation: RAT, LIVER, S-9, AROCLOR 1254 (10%), Method: PREINCUBATION) of the same compound?
Its mutagenic call is “inactive; negative”.

What about the mutagenic call (Test System: AMES SALMONELLA TYPHIMURIUM, Strain/Indicator: TA1535, Metabolic Activation: RAT, LIVER, S-9, KC 500, Method: PREINCUBATION) of the same compound?
The mutagenic call was “inactive; negative”.

And the mutagenic call (Test System: AMES SALMONELLA TYPHIMURIUM, Strain/Indicator: TA1537, Metabolic Activation: HAMSTER, LIVER, S-9, AROCLOR 1254 (10%), Method: PREINCUBATION)?
Its mutagenic call is “inactive; negative”.

What about the mutagenic call [2] of the same compound?
Its mutagenic call is “inactive; negative”.

And the mutagenic call (Test System: AMES SALMONELLA TYPHIMURIUM, Strain/Indicator: TA1537, Metabolic Activation: RAT, LIVER, S-9, AROCLOR 1254 (10%), Method: PREINCUBATION)?
Its mutagenic call is “inactive; negative”.

What about the mutagenic call (Test System: AMES SALMONELLA TYPHIMURIUM, Strain/Indicator: TA1537, Metabolic Activation: RAT, LIVER, S-9, KC 500, Method: PREINCUBATION) of the same compound?
The mutagenic call was “inactive; negative”.

What about the mutagenic call (Test System: AMES SALMONELLA TYPHIMURIUM, Strain/Indicator: TA1538, Metabolic Activation: NONE, Method: PREINCUBATION) of the same compound?
Its mutagenic call is “inactive; negative”.

What about the mutagenic call (Test System: AMES SALMONELLA TYPHIMURIUM, Strain/Indicator: TA1538, Metabolic Activation: RAT, LIVER, S-9, KC 500, Method: PREINCUBATION) of the same compound?
Its mutagenic call is “inactive; negative”.

And the mutagenic call (Test System: E. COLI, Strain/Indicator: WP2 UVRA, Metabolic Activation: NONE, Method: PREINCUBATION)?
The mutagenic call was “inactive; negative”.

And the mutagenic call (Test System: E. COLI, Strain/Indicator: WP2 UVRA, Metabolic Activation: RAT, LIVER, S-9, KC 500, Method: PREINCUBATION)?
Its mutagenic call is “inactive; negative”.

`N[C@@H](CCC(=O)NNc1ccc(CO)cc1)C(=O)O` was tested. Which mutagenic call (Test System: AMES SALMONELLA TYPHIMURIUM, Strain/Indicator: TA97, Metabolic Activation: NONE) did it give?
Its mutagenic call is “active; positive”.

What about the mutagenic call (Test System: AMES SALMONELLA TYPHIMURIUM, Strain/Indicator: TA98, Metabolic Activation: NONE) of the same compound?
The mutagenic call was “inactive; negative”.

What about the mutagenic call (Test System: AMES SALMONELLA TYPHIMURIUM, Strain/Indicator: TA100, Metabolic Activation: NONE) of the same compound?
Its mutagenic call is “inactive; negative”.

What about the mutagenic call (Test System: AMES SALMONELLA TYPHIMURIUM, Strain/Indicator: TA102, Metabolic Activation: NONE) of the same compound?
The mutagenic call was “inactive; negative”.

And the mutagenic call (Test System: AMES SALMONELLA TYPHIMURIUM, Strain/Indicator: TA104, Metabolic Activation: MUSHROOM TYROSINASE, Method: PREINCUBATION)?
The mutagenic call was “inactive; negative”.

What about the mutagenic call (Test System: AMES SALMONELLA TYPHIMURIUM, Strain/Indicator: TA104, Metabolic Activation: NONE) of the same compound?
The mutagenic call was “active; positive”.

What about the mutagenic call (Test System: AMES SALMONELLA TYPHIMURIUM, Strain/Indicator: TA104, Metabolic Activation: NONE, Method: PREINCUBATION) of the same compound?
Its mutagenic call is “inactive; negative”.

What about the mutagenic call (Test System: AMES SALMONELLA TYPHIMURIUM, Strain/Indicator: TA104, Metabolic Activation: RAT, KIDNEY, HOMOGENATE, REDUCED GLUTATHIONE, Method: PREINCUBATION) of the same compound?
The mutagenic call was “active; positive”.

What about the mutagenic call (Test System: AMES SALMONELLA TYPHIMURIUM, Strain/Indicator: TA104, Metabolic Activation: RAT, KIDNEY, HOMOGENATE, Method: PREINCUBATION) of the same compound?
Its mutagenic call is “active; positive”.

And the mutagenic call (Test System: AMES SALMONELLA TYPHIMURIUM, Strain/Indicator: TA104, Metabolic Activation: RAT, LIVER, CYTOSOL, AROCLOR 1254, NADPH, Method: PREINCUBATION)?
Its mutagenic call is “active; positive”.

And the mutagenic call (Test System: AMES SALMONELLA TYPHIMURIUM, Strain/Indicator: TA104, Metabolic Activation: RAT, LIVER, CYTOSOLIC FRACTION, AROCLOR 1254 (10%))?
Its mutagenic call is “active; positive”.

And the mutagenic call (Test System: AMES SALMONELLA TYPHIMURIUM, Strain/Indicator: TA104, Metabolic Activation: RAT, LIVER, MICROSOMES, AROCLOR 1254, Method: PREINCUBATION)?
Its mutagenic call is “inactive; negative”.

What about the mutagenic call (Test System: AMES SALMONELLA TYPHIMURIUM, Strain/Indicator: TA104, Metabolic Activation: RAT, LIVER, MICROSOMES, AROCLOR 1254 AND RAT, KIDNEY, HOMOGENATE, Method: PREINCUBATION) of the same compound?
Its mutagenic call is “active; positive”.

What about the mutagenic call (Test System: AMES SALMONELLA TYPHIMURIUM, Strain/Indicator: TA1535, Metabolic Activation: NONE) of the same compound?
Its mutagenic call is “inactive; negative”.

And the mutagenic call [1]?
The mutagenic call was “inactive; negative”.

And the mutagenic call (Test System: AMES SALMONELLA TYPHIMURIUM, Strain/Indicator: TA1535, Metabolic Activation: RAT, LIVER, S-9, AROCLOR 1254, Method: PREINCUBATION)?
Its mutagenic call is “inactive; negative”.

And the mutagenic call (Test System: AMES SALMONELLA TYPHIMURIUM, Strain/Indicator: TA1537, Metabolic Activation: NONE)?
The mutagenic call was “active; positive”.

What about the mutagenic call [2] of the same compound?
The mutagenic call was “inactive; negative”.

And the mutagenic call (Test System: AMES SALMONELLA TYPHIMURIUM, Strain/Indicator: TA1537, Metabolic Activation: RAT, LIVER, S-9, AROCLOR 1254, Method: PREINCUBATION)?
The mutagenic call was “inactive; negative”.

What about the mutagenic call (Test System: AMES SALMONELLA TYPHIMURIUM, Strain/Indicator: TA1538, Metabolic Activation: NONE) of the same compound?
Its mutagenic call is “inactive; negative”.
